# Key:
# Format in all cases: cell-based, Elaeis guineensis
# oil palm protoplasts [1] = assay: Plant growth regulators (PGRs) optimization on agarose solidified cultures; conditions: within PGR combinations, Y3A or Y3D media
# Description: The PGRs optimization was performed on agarose solidified cultures. All PGRs used were prepared at the concentration of 1 μM/μl and the pH was adjusted to 5.7. The filter-sterilized PGRs were added in 24 wells culture plate at different combinations and concentration as indicated in Table 3.
# Protoplast division frequency was calculated by counting the number of protoplasts divided by the total number of protoplasts in one representative microscope field. Three microscopic fields were averaged to represent one experiment in which the experiment was performed in 3 replicates to give an average range of protoplast division frequency. A similar calculation procedure was used for microcolonies and microcalli formation frequencies.
# microcalli = assay: Control of callus browning in agarose bead culture; conditions: additive in Y35N5D2iP liquid media surrounding agarose beads; AA 200 mg/l
# Description: The mixture of protoplasts and agarose was prepared by using the same procedure for preparation of agarose solidified cultures with the exception that the protoplast pellet was resuspended in […] liquid media supplemented with the optimum PGRs and 0.6% w/v agarose sea plaque. Agarose beads were prepared by dropping 200 μl of the mixture into a 60 mm×15 mm petri dish. After agarose solidification, 10 ml of 21% v/v osmoticum solution was added to Petri dish and incubated at 28° C. in the dark for 3-5 days. Three types of osmoticum solutions were used: sucrose, glucose and mannitol. Each was dissolved in water, adjusting the pH to 5.7 and then filter-sterilized. The osmoticum solution was replaced with different liquid media in shaking condition at 50 rpm by refreshing the media at 14-day intervals. When the formation of microcolonies was observed, […] liquid media was changed to Y3 liquid media and the agarose beads were cultured until the microcalli were detected. […] The cultures were continued until the microcalli growth to embryogenic calli.
# oil palm protoplasts [2] = assay: DNA microinjection mediated transformation of alginate layer-embedded protoplasts; conditions: in injected protoplasts at 28° C.
# Description: Protoplasts were isolated from a 7 day subculture of a 3 month old embryogenic suspension culture as described above. After twice repeating the washing step, the supernatant was mostly removed leaving 3 ml Washing solution. The centrifuge tube containing the protoplast suspension was incubated in a vertical position in the dark for 24 hours at 28° C. After incubation, the protoplast suspension was diluted by 10 ml of Rinse solution and resuspended by inverting the centrifuge tube for 3-5 times, and then centrifuged at 60×g for 5 minutes at 22° C. After repeating the rinsing step, the supernatant was removed completely and the protoplast pellet was embedded with 3 ml filter-sterilized ([…]) alginate solution consisted of 1% w/v alginic acid sodium salt (A2158, Sigma) dissolved in Y3A liquid media (5.5% w/v sucrose and 11.9% w/v glucose supplemented with 10 μM NAA, 2 μM 2.4-D, 2 μM IBA, 2 μM GA3, 2 μM 2iP and 200 mg/L ascorbic acid) adjusted to pH 5.6, in which the Y3 macroelements was prepared without calcium chloride (CaCl2.2H2O).
# Alginate-embedded protoplasts were distributed as a thin layer onto supporting media comprising, 1.5 mL filter-sterilized Y3A (5.5% w/v sucrose and 11.9% w/v glucose supplemented with 0.1% w/v CaCl2.2H2O) solidified with 1% w/v agarose sea plaque, in 35 mm×10 mm petri dish (no. 627161, Greiner Bio-One, Germany). […]
Compound,Cell division at concentration higher than 7 μM (oil palm protoplasts [1]),other results
"O=C(O)COc1ccc(Cl)cc1Cl [2,4-D, 2,4-Dichlorophenoxyacetic acid]",inhibited cell division,
"O=C(O)CCCc1c[nH]c2ccccc12 [IBA, Indole-3-butyric acid]",inhibited cell division,
"CC(C)=CCNc1ncnc2nc[nH]c12 [2iP, 2-γ-Dimethylallylaminopurine]",inhibited cell division,
"O=[N+]([O-])[O-].[Ag+] [AgNO3, Silver nitrate]",,Microcalli browning / development of embryogenic callus (microcalli): did not solve the problem of browning
Lucifer Yellow CH dilithium salt,,Time the fluorescence property is maintained (oil palm protoplasts [2]): 48 h
"C=C1C[C@]23C[C@@]1(O)CC[C@H]2[C@@]12C=C[C@H](O)[C@@](C)(C(=O)O1)[C@H]2[C@@H]3C(=O)O [GA3, Gibberellic acid A3]",inhibited cell division,
"O=C1O[C@H]([C@@H](O)CO)C(O)=C1O [AA, Ascorbic acid]",,Microcalli browning / development of embryogenic callus (microcalli): developed embryogenic callus
